Measurements reported in ChEMBL document CHEMBL1275440, “In vitro activity of telavancin against resistant gram-positive bacteria” (2008).
Values after ≈ are worked out from the molar mass of the structure shown. Active and inactive are the calls of the source. No cut-off for these calls is given here.

Experiments:
Assay type in all cases: functional
Streptococcus pneumoniae [1] = assay: Antibacterial activity against multidrug resistant Streptococcus pneumoniae MED 1090 assessed as bacterial count at 0.06 ug/ml after 2 hrs by time-kill assay
Streptococcus pyogenes [2] = assay: Antibacterial activity against Streptococcus pyogenes group A clinical isolate by broth microdilution method
Streptococcus pyogenes [3] = assay: Antibacterial activity against Streptococcus pyogenes MED 2040 assessed as bacterial count at […] after 8 hrs by time-kill assay
Streptococcus agalactiae [4] = assay: Antibacterial activity against Streptococcus agalactiae group B clinical isolate by broth microdilution method
Streptococcus agalactiae [5] = assay: Antibacterial activity against Streptococcus agalactiae MED 2038 assessed as bacterial count at 8 ug/ml after 2 hrs by time-kill assay
Streptococcus pyogenes [6] = assay: Antibacterial activity against Streptococcus pyogenes MED 2040 assessed as bacterial count at […] after 2 hrs by time-kill assay
Streptococcus agalactiae [7] = assay: Antibacterial activity against Streptococcus agalactiae MED 2038 assessed as bacterial count at 2 ug/ml after 4 hrs by time-kill assay
[8] = system: Staphylococcus epidermidis; assay: Antibacterial activity against methicillin resistant Staphylococcus epidermidis ATCC 35984 by broth microdilution method
Streptococcus viridans = assay: Antibacterial activity against Streptococcus viridans clinical isolate by broth microdilution method
[9] = system: Staphylococcus epidermidis; assay: Antibacterial activity against methicillin resistant Staphylococcus epidermidis ATCC 35984 assessed as bacterial count at 2 ug/ml after 4 hrs by time-kill assay
[10] = system: Staphylococcus auricularis; assay: Antibacterial activity against methicillin resistant coagulase-negative Staphylococcus auricularis clinical isolate by broth microdilution method
Streptococcus pneumoniae [11] = assay: Antibacterial activity against multidrug resistant Streptococcus pneumoniae MED 1090 assessed as bacterial count at 2 ug/ml after 4 hrs by time-kill assay
Staphylococcus aureus = assay: Antibacterial activity against methicillin resistant Staphylococcus aureus MED 1805 bloodstream isolate assessed as bacterial count at 1 ug/ml after 4 hrs by time-kill assay
Streptococcus pyogenes [12] = assay: Antibacterial activity against Streptococcus pyogenes MED 2040 assessed as bacterial count at […] after 24 hrs by time-kill assay
Streptococcus agalactiae [13] = assay: Antibacterial activity against Streptococcus agalactiae MED 2038 assessed as bacterial count at […] after 8 hrs by time-kill assay
[14] = system: Staphylococcus epidermidis; assay: Antibacterial activity against methicillin resistant Staphylococcus epidermidis ATCC 35984 assessed as bacterial count at 4 ug/ml after 2 hrs by time-kill assay
Streptococcus pneumoniae [15] = assay: Antibacterial activity against multidrug resistant Streptococcus pneumoniae MED 1090 by broth microdilution method
Enterococcus faecalis [16] = assay: Antibacterial activity against Enterococcus faecalis ATCC 51575 assessed as bacterial count at 4 ug/ml after 2 hrs by time-kill assay
Streptococcus pneumoniae [17] = assay: Antibacterial activity against multidrug resistant Streptococcus pneumoniae MED 1090 assessed as bacterial count at […] after 2 hrs by time-kill assay
Streptococcus agalactiae [18] = assay: Antibacterial activity against Streptococcus agalactiae MED 2038 assessed as bacterial count at 2 ug/ml after 2 hrs by time-kill assay
Enterococcus faecalis [19] = assay: Antibacterial activity against vancomycin resistant Enterococcus faecalis VanA clinical isolate by broth microdilution method
[20] = system: Staphylococcus epidermidis; assay: Antibacterial activity against methicillin resistant Staphylococcus epidermidis clinical isolate by broth microdilution method
Streptococcus agalactiae [21] = assay: Antibacterial activity against Streptococcus agalactiae MED 2038 assessed as bacterial count at 2 ug/ml after 24 hrs by time-kill assay

Work on `CCCCCCCCCCNCCN[C@@]1(C)C[C@H](O[C@H]2[C@H](Oc3c4cc5cc3Oc3ccc(cc3Cl)[C@@H](O)[C@@H](NC(=O)[C@@H](CC(C)C)NC)C(=O)N[C@@H](CC(N)=O)C(=O)N[C@H]5C(=O)N[C@H]3C(=O)N[C@H](C(=O)N[C@H](C(=O)O)c5cc(O)c(CNCP(=O)(O)O)c(O)c5-c5cc3ccc5O)[C@H](O)c3ccc(c(Cl)c3)O4)O[C@H](CO)[C@@H](O)[C@@H]2O)O[C@@H](C)[C@H]1O` [TELAVANCIN] yielded a log10CFU/ml (Streptococcus pneumoniae [1]) of 1, an MIC50 (Streptococcus pyogenes [2]) of 0.03 µg/mL (≈ 0.0171 µM) and an MIC90 (Streptococcus pyogenes [2]) of 0.06 µg/mL (≈ 0.0342 µM). It also gave a log10CFU/ml (Streptococcus pyogenes [3]) of 2.5, an MIC50 (Streptococcus agalactiae [4]) of 0.06 µg/mL (≈ 0.0342 µM) and an MIC90 (Streptococcus agalactiae [4]) of 0.06 µg/mL (≈ 0.0342 µM). The log10CFU/ml (Streptococcus agalactiae [5]) was 1.1, the log10CFU/ml (Streptococcus pyogenes [6]) was 0.4 and the log10CFU/ml (Streptococcus agalactiae [7]) was 0.8. The MIC [8] was 1 µg/mL (≈ 0.57 µM), the MIC (Streptococcus viridans) was 0.015 µg/mL (≈ 0.00854 µM) and the MIC50 (Streptococcus viridans) was “inactive”. The MIC90 (Streptococcus viridans) was “inactive”, the log10CFU/ml [9] was 0.03 and the MIC50 [10] was 0.5 µg/mL (≈ 0.285 µM). The MIC90 [10] was 1 µg/mL (≈ 0.57 µM), the log10CFU/ml (Streptococcus pneumoniae [11]) was 3 and the log10CFU/ml (Staphylococcus aureus) was 1.8. For the same compound, the log10CFU/ml (Streptococcus pyogenes [12]) was 2.2, the log10CFU/ml (Streptococcus agalactiae [13]) was 1.6 and the log10CFU/ml [14] was 1. It also gave an MIC (Streptococcus pneumoniae [15]) of 0.015 µg/mL (≈ 0.00854 µM), a log10CFU/ml (Enterococcus faecalis [16]) of 0.5 and a log10CFU/ml (Streptococcus pneumoniae [17]) of 1.1. It also gave a log10CFU/ml (Streptococcus agalactiae [18]) of 0.8, an MIC50 (Enterococcus faecalis [19]) of 8 µg/mL (≈ 4.56 µM) and an MIC90 (Enterococcus faecalis [19]) of 16 µg/mL (≈ 9.11 µM). The MIC50 [20] was 0.5 µg/mL (≈ 0.285 µM), the MIC90 [20] was 1 µg/mL (≈ 0.57 µM) and the log10CFU/ml (Streptococcus agalactiae [21]) was 2.7.
